The test system of assay [1] is Bacillus subtilis ATCC 6633. Put plainly: Concentration test spores of Bacillus subtilis (method B), with and without lysozyme. It counts as cell-based. To be noted: use concentration of 0.001% (Figure 2). As to the method:
• fixed pipettes 1 ml; 500 µl, and 100 µl • sterile glass pipettes 10 ml • sterile spatulas • sterile Schott bottles • water bath 30°C • CSA-agar + TLSH (Tween 80 3%; lecithin 0.3%; saponin 3%, histidine 0.1%) • Bacillus subtilis ATCC 6633 stored in a) H2O or b) ethanol
Spore samples are provided commercially, sometimes as ethanolic solution (40% ethanol in water).
Germination medium: + TLSH:
The germ count of the ordered spore solution is ascertained prior to the start of the experiment by means of plating out and counting and, if appropriate, the spore suspension is diluted. On the day of the experiment, a starting germ count (SGC) is again generated from the spore suspension used. By means of spore counting under the microscope in a Helber chamber, a comparison is drawn between spores which are actually present and the number of germinating spores. The starting spore count should be ca. 1 × 10^7 CFU/ml. With the help of the malachite green coloration, adequate sporulation of the spore suspension used was verified by means of light microscopy.
Samples are taken regularly over several weeks. The experimental solutions stand in the dark at room temperature during the action times.
In each case 50 ml per solution to be investigated are pipetted into a sterile Schott bottle, inoculated with 50 µl of spore suspension and incubated at room temperature. […]

For another assay, the system named is spores. To be noted: prior art; cited from earlier work.

Take `CCCCCCCCN=c1ccn(CCCCCCCCCCn2ccc(=NCCCCCCCC)cc2)cc1.Cl.Cl` [octenidine, N,N'-(1,10-decanediyldi-1[4H]-pyridinyl-4-ylidene)bis(1-octanamine) dihydrochloride]: in assay [1], the “effect against B. subtilis ATCC 6633” value was “effective” and the “time after which the effect can be detected” value is recorded as “after just one day”.

Take `CCCCCCCCCC[N+](C)(C)CCCCCCCCCC.[Cl-]` [didecyldimethylammonium chloride]: in the assay on spores, the germination of spores entry is recorded as “prevent the germination of spores” and the killing of spores entry was “do not kill them”.

benzalkonium chloride: in the assay with spores, the germination of spores result was “prevent the germination of spores” and the killing of spores entry is “spores are not killed”.

The values are drawn from patent EP2532242A1, “Use of bispyridiniumalkanes for killing spores” (L'AIR LIQUIDE, SOCIETE ANONYME POUR L'ETUDE ET …, priority 2011, dated 2012).
